Experimental data as given in publication PMC5484141, “Asperentin B, a New Inhibitor of the Protein Tyrosine Phosphatase 1B” (Marine Drugs, 2017).
Values after ≈ are worked out from the molar mass of the structure shown. Values joined by “and” are separate entries in the source; they are usually repeats but may differ in a detail not shown here. Identical values can stand only once. “Also recorded” adds a separate entry of the source. Like-named read-outs stand apart in the source and are kept apart here.

Tests used:
[1] = test system: HT29 (colon adenocarcinoma); test: Cytotoxic activity against HT29; type: cell-based; conditions: test concentrations up to 50 μM (stated for 1)
Description: (§1) Antimicrobial activities of compounds 1 and 2 against Bacillus subtilis DSM 347, Staphylococcus lentus DSM 6672, Propionibacterium acnes, Xanthomonas campestris, and Septoria tritici, as well as the cytotoxic activity against the cell lines HepG3 (hepatocellular carcinoma) and HT29 (colon adenocarcinoma) were assayed as described by Schneemann et al. [27].

[2] = test system: Staphylococcus lentus DSM 6672; test: Antimicrobial activity against Staphylococcus lentus; type: cell-based; conditions: concentrations of 100 μM (stated for 1)
Description: as §1

[3] = test system: Candida albicans DSM 1386; test: Growth of human pathogenic yeast Candida albicans; type: cell-based; conditions: concentrations of 100 μM
Description: (§2) Antimicrobial activities of compounds 1 and 2 against Bacillus subtilis DSM 347, Staphylococcus lentus DSM 6672, Propionibacterium acnes, Xanthomonas campestris, and Septoria tritici, as well as the cytotoxic activity against the cell lines HepG3 (hepatocellular carcinoma) and HT29 (colon adenocarcinoma) were assayed as described by Schneemann et al. [27]. The effect on the growth of human pathogenic yeast, Candida albicans DSM 1386, was measured according to Ohlendorf et al. [28]. The activity of compound 2 against the dermatophyte Trichophyton mentagrophytes was tested as described by Nagel et al. [29].

Septoria tritici = test: Antimicrobial activity against Septoria tritici; type: cell-based
Description: as §2

Propionibacterium acnes = test: Antimicrobial activity against Propionibacterium acnes; type: cell-based
Description: as §1

HepG2 = test: Cytotoxic activity against HepG2; type: cell-based; conditions: test concentrations up to 50 μM
Description: as §2

Xanthomonas campestris = test: Antimicrobial activity against Xanthomonas campestris; type: cell-based; conditions: concentrations of 100 μM (stated for 1)
Description: as §1

[4] = test system: Bacillus subtilis DSM 347; test: Antimicrobial activity against Bacillus subtilis; type: cell-based; conditions: concentrations of 100 μM (stated for 1)
Description: as §1

[5] = target: T1, human recombinant protein tyrosine phosphatase 1B (PTP1B) (Homo sapiens, UniProt P18031); test: PTP1B inhibition assay with substrate IR5 (Biomol green phosphate detection); type: biochemical
T1 construct: purchased Biomol SE332-0050
T1 sequence (P18031 1-322 limits assumed): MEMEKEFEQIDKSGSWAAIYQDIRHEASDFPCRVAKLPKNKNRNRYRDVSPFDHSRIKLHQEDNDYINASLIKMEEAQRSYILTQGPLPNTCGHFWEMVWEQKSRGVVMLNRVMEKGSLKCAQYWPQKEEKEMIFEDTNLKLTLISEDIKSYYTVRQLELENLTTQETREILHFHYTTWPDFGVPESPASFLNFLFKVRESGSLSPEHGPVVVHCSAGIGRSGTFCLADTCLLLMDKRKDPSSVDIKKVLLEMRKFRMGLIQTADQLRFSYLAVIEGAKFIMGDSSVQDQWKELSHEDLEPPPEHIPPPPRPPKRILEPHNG
Description: The effect of 1 and 2 on human recombinant protein tyrosine phosphatase 1B (PTP1B) was tested in microtiter plates. […] After warming for 10 min to the assay temperature of 30 °C 5 μL of human recombinant PTP1B (Biomol; CatNo. SE332-0050) stock solution (1 ng/μL) were added. The reaction was started with 50 μL of the substrate IR5 (insulin receptor amino acids 1142–1153 with pTyr at position 1146 (Biosyntan, Berlin, Germany) dissolved in PTP1B assay buffer to a concentration of 0.15 mM. The phosphopeptid IR5 comprises the amino acid sequence Thr-Arg-Asp-Ile-p[…]COOH and is part of the autophosphorylation domain of the insulin receptor (IR). After an incubation period of 25 min at 30°C the reaction was stopped by adding 150 μL of Biomol green (Biomol, CatNo. AK111-0250). PTP1B dephosphorylates the IR5 substrate resulting in the release of orthophosphate which was quantified after incubating for 20 min at 620 nm using the microtiter plate reader Infinite M200 (Tecan Group Ltd., Männedorf, Switzerland). […] IC50 values were determined as duplicates.

[6] = test system: etiolated wheat coleoptile; design: method as in PMID 8229019; conditions: concentration of 1 mM; cited from earlier work
[7] = test system: glycogen synthase kinase GSK-3 β; design: method as in PMID 27801816; conditions: cited from earlier work
PTP1B [8] = test system: PTP1B; design: method as in earlier work; conditions: substrate p-nitrophenyl phosphate; ref 13 (McCain et al.); read-out: IC50 value against PTP1B; cited from earlier work
leukemia cell line P388 = test system: leukemia cell line P388; design: method as in PMID 17958319; conditions: cited from earlier work
[9] = design: method as in doi:10.1007/s11802-014-2216-2; conditions: cited from earlier work
PTP1B [10] = test system: PTP1B; design: method as in PMID 25819098; conditions: read-out: IC50 value against PTP1B; cited from earlier work
Micrococcus flavus = test system: Micrococcus flavus; design: method as in PMID 5169000; conditions: cited from earlier work
[11] = test system: dermatophytes, including Trichophyton rubrum; design: method as in PMID 5169000; conditions: cited from earlier work
Arthrobacter citreus = test system: Arthrobacter citreus; design: method as in PMID 646581; conditions: cited from earlier work
Bacillus brevis = test system: Bacillus brevis; design: method as in PMID 646581; conditions: cited from earlier work
Sarcina lutea = test system: Sarcina lutea; design: method as in PMID 646581; conditions: cited from earlier work
Botrytis cinerea = test system: Botrytis cinerea; design: method as in PMID 25517217; conditions: cited from earlier work
[12] = test system: Trichophyton mentagrophytes; test: Activity against the dermatophyte Trichophyton mentagrophytes; type: cell-based; conditions: read-out: inhibition of T. mentagrophytes in comparison to the positive control clotrimazole, concentration of 100 μM
Description: as §2

[13] = test system: Colletotrichum gleosporoides; design: method as in PMID 25517217; conditions: cited from earlier work
Rhizoctonia solani = test system: Rhizoctonia solani; design: method as in PMID 5169000; conditions: cited from earlier work

CC1CCCC(CC2Cc3c(O)c(O)cc(O)c3C(=O)O2)O1 (stereo not shown) [compound 1, Asperentin B]
cytotoxic effects against HT29 [1]: did not exhibit cytotoxic activities | antibiotic activity against Staphylococcus lentus [2]: No antibiotic activity; also recorded: did not exhibit | antibiotic activity against Candida albicans [3]: No antibiotic activity | antibiotic activity against Septoria tritici (in words) (Septoria tritici; concentrations of 100 μM): No antibiotic activity | inhibition at 100 µM (Propionibacterium acnes; Cutibacterium acnes, 100 μM test concentration): 57% | cytotoxic effects against HepG2 (HepG2): No activities were not found | antibiotic activity against Xanthomonas campestris (Xanthomonas campestris): No antibiotic activity; also recorded: did not exhibit | antibiotic activity against Bacillus subtilis [4]: No antibiotic activity; also recorded: did not exhibit | IC50 ([5]; in vitro, duplicates, read-out: IC50 value against PTP1B): 2.05 µM and 2 µM

C[C@H]1CCC[C@@H](C[C@H]2Cc3cc(O)cc(O)c3C(=O)O2)O1 [isoasperentin, reference compound]
growth inhibition, etiolated wheat coleoptile assay [6]: 100%

Cc1cc2cc(O)cc(O)c2c2oc(=O)cc(O)c12 [pannorin]
inhibition of GSK-3 β (in words) [7]: inhibitor

Cc1ccc(C(=O)Nc2ccc(S(=O)(=O)O)c3cc(S(=O)(=O)O)cc(S(=O)(=O)O)c23)cc1NC(=O)c1cccc(NC(=O)Nc2cccc(C(=O)Nc3cc(C(=O)Nc4ccc(S(=O)(=O)O)c5cc(S(=O)(=O)O)cc(S(=O)(=O)O)c45)ccc3C)c2)c1 [suramin]
IC50 (PTP1B [8]): 11 µM

C/C=C/[C@H]1CC(=O)c2cc(C)c(O)c(C)c2O1 [(2R)-2,3-dihydro-7-hydroxy-6,8-dimethyl-2-[(E)-prop-1-enyl]chromen-4-one]
cytotoxic effects on P388 (leukemia cell line P388): cytotoxic effects

brevianamide W
antioxidant activity [9]: antioxidant activity

CCCCCCCCCCCCCCCC(=O)C1=C(O)[C@@H](CO)OC1=O [RK-682, (R)-4-Hydroxy-5-(hydroxymethyl)-3-(1-oxohexadecyl)-2(5H)-furanone]
IC50 (PTP1B [10]): 4.5 µM

Monoacetyl asperentin [reference compound]
MIC, Micrococcus flavus (Micrococcus flavus): 75 µg/mL | MIC, four dermatophytes including Trichophyton rubrum [11]: 75 µg/mL

CC(=O)C(C)c1oc(C)c(C)c(=O)c1C (stereo not shown) [2,3,5-trimethyl-6-(3-oxobutan-2-yl)-4H-pyran-4-one]
cytotoxic effects on P388 (leukemia cell line P388): cytotoxic effects

dimethyl asperentin [reference compound]
MIC, Arthrobacter citreus (Arthrobacter citreus): > 100 µg/mL | MIC, Bacillus brevis (Bacillus brevis): 10 µg/mL | MIC, Sarcina lutea (Sarcina lutea): > 100 µg/mL

C[C@H]1CCC[C@H](C[C@H]2Cc3cc(O)cc(O)c3C(=O)O2)O1 [compound 2, asperentin]
cytotoxic effects against HT29 [1]: did not exhibit cytotoxic activities | MIC, Arthrobacter citreus (Arthrobacter citreus): 1 µg/mL (≈ 3.42 µM) | MIC, Bacillus brevis (Bacillus brevis): 0.05 µg/mL (≈ 0.171 µM) | antibiotic activity against Staphylococcus lentus [2]: did not exhibit | activity against Botrytis cinerea (Botrytis cinerea): active | inhibition at 100 µM [12]: 100% | MIC, Sarcina lutea (Sarcina lutea): 2000 µg/mL (≈ 6840 µM) | inhibition at 100 µM (Septoria tritici; Zymoseptoria tritici, read-out: inhibition of S. tritici in comparison to the positive control clotrimazole, concentration of 100 μM): 83% | activity against P. acnes (in words) (Propionibacterium acnes): did not show any activity | activity against Colletotrichum gleosporoides [13]: active | minimum inhibitory concentration (MIC), five dermatophytes including Trichophyton rubrum [11]: 75 µg/mL (≈ 257 µM) | minimum inhibitory concentration (MIC), Rhizoctonia solani (Rhizoctonia solani): 75 µg/mL (≈ 257 µM) | antibiotic activity against Xanthomonas campestris (Xanthomonas campestris): did not exhibit | antibiotic activity against Bacillus subtilis [4]: did not exhibit; also recorded: not inhibited | growth inhibition, etiolated wheat coleoptile assay [6]: 81% | inhibition of PTP1B enzymatic activity (in words) [5]: did not show any activity; also recorded: did not show any inhibition
